Source: BindingDB's records for doi:10.1016/S0960-894X(97)00247-3 (1997)

target: not listed separately; experiment: Compound was tested for the Inhibition of human Secretory phospholipase A 2 acyl hydrolysis using a membrane assay; inactive

Row | Structure (SMILES) | IC50 [µM]
1 | CCCCCCCCCCCCCCCCCCOCC(CCC1CO1)NC(C)=O (configuration not stated) [N-(1-Octadecyloxymethyl-3-oxiranyl-propyl)-acetamide] | > 200
2 | CCCCCCCCCCCCCCCCCCOCC(CCSc1ccc(C)cc1)NC(C)=O (configuration not stated) [N-(1-Octadecyloxymethyl-3-p-tolylsulfanyl-propyl)-acetamide] | > 200
3 | CCCCCCCCCCCCCCCCCCOCC(CCC(C)=O)NC(C)=O (configuration not stated) [N-(1-Octadecyloxymethyl-4-oxo-pentyl)-acetamide] | > 200
4 | CCCCCCCCCCCCCCCCCCOCC(CCCO)NC(C)=O (configuration not stated) [N-(4-Hydroxy-1-octadecyloxymethyl-butyl)-acetamide] | > 200
5 | CCCCCCCCCCCCCCCCCCOCC(CNS(=O)(=O)c1ccc(C)cc1)NC(C)=O (configuration not stated) [N-[1-Octadecyloxymethyl-2-(toluene-4-sulfonylamino)-ethyl]-acetamide] | > 200
6 | CCCCCCCCCCCCCCCCCCOCC(CC[S+]([O-])c1ccc(C)cc1)NC(C)=O (configuration not stated) [N-{1-(Octadecyloxymethyl)-3-[(4-methylphenyl)sulfinyl]propyl}acetamide] | > 200

target: Phospholipase A2, membrane associated (group IIA); experiment: Compound was tested for the Inhibition of human Secretory phospholipase A 2 acyl hydrolysis using a membrane assay; Inactive

Row | Structure (SMILES) | IC50 [µM]
7 | CCCCCCCCCCCCCCCCCCOCC(CCCCO)NC(C)=O (configuration not stated) [N-(5-Hydroxy-1-octadecyloxymethyl-pentyl)-acetamide] | > 200

target: not listed separately; experiment: Compound was tested for the Inhibition of human Secretory phospholipase A 2 acyl hydrolysis using a membrane assay; inactive; remark: another data set of the same source

Row | Structure (SMILES) | IC50 [µM]
8 | CCCCCCCCOC[C@H](CO[P@](=O)(O)OCCN)O[P@@](=O)(O)CCCCCCC | 1
9 | C=CCCC(COCCCCCCCCCCCCCCCCCC)NC(C)=O (configuration not stated) [N-(1-Octadecyloxymethyl-pent-4-enyl)-acetamide] | 8
10 | CCCCCCCCCCCCCCCCCCOCC(CCCC)NC(C)=O (configuration not stated) [N-(1-Octadecyloxymethyl-pentyl)-acetamide] | 60
11 | CCCCCCCCCCCCCCCCCCOCC(CCC(O)CO)NC(C)=O (configuration not stated) [N-(4,5-Dihydroxy-1-octadecyloxymethyl-pentyl)-acetamide] | 8.9
12 | CCCCCCCCCCCCCCCCCCOCC(COCC(F)(F)F)NC(C)=O (configuration not stated) [N-[1-Octadecyloxymethyl-2-(2,2,2-trifluoro-ethoxy)-ethyl]-acetamide] | 100
13 | CCCCCCCCCCCCCCCCCCOCC(CCc1nnn[nH]1)NC(C)=O (configuration not stated) [N-[1-Octadecyloxymethyl-3-(1H-tetrazol-5-yl)-propyl]-acetamide] | 0.57
14 | CCCCCCCCCCCCCCCCCCOCC(CCS(=O)(=O)c1ccc(C)cc1)NC(C)=O (configuration not stated) [N-[1-Octadecyloxymethyl-3-(toluene-4-sulfonyl)-propyl]-acetamide] | 50
15 | CCCCCCCCCCCCCCCCCCOCC(CC[S+](C)[O-])NC(C)=O (configuration not stated) [N-[1-[(Octadecyloxy)methyl]-3-(methylsulfinyl)propyl]acetamide] | 60
16 | CCCCCCCCCCCCC(=O)NC(COCCC)COP(=O)(O)OCCO (configuration not stated) [Phosphoric acid 2-hydroxy-ethyl ester 3-propoxy-2-tridecanoylamino-propyl ester] | 1
17 | CCCCCCCCCCCCC(=O)NC(CCCC)CCc1nnn[nH]1 (configuration not stated) [Tridecanoic acid {1-[2-(1H-tetrazol-5-yl)-ethyl]-pentyl}-amide] | 6.6
